Patent US10647713B2 (Nimbus Lakshmi, Inc., priority 2016, dated 2020)

Biological target: human TYK2 (JH2domain-pseudokinase) (Homo sapiens (Human), UniProt P29597)
Assay: TYK2 JH2 Domain Binding Assay (KINOMEscan, DiscoveRx)
Settings: 11-point dilution, duplicate
How it was run: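 TYK2 JH2 (G556–D888)–NFkB DBD fusion, DNA-tagged, from HEK293 extracts (<0.1 nM) competed against immobilised biotinylated ligand for 1 h at room temperature, 0.9% DMSO. Bead-retained kinase quantified by qPCR; Kd from 11-point 3-fold series (top 30,000 nM, duplicate), Hill fit with slope −1.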

Chain of human TYK2 (JH2domain-pseudokinase) (P29597 556-888): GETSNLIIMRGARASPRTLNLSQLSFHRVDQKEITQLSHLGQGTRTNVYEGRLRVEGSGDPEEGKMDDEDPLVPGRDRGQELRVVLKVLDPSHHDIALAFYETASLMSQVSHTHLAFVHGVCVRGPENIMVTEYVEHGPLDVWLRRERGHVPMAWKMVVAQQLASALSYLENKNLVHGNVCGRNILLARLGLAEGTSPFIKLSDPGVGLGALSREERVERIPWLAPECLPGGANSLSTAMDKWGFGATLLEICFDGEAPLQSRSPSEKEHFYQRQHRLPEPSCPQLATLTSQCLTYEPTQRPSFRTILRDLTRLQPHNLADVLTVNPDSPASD

| Kd [nM] | SMILES |
| --- | --- |
| 0.5 to 1 | Cc1cc(-c2ccc(Nc3cc(NC(=O)[C@@H]4CC4(F)F)nc4[nH]c(C(F)F)nc34)c(S(C)(=O)=O)c2)nn1C [I-313, (S)—N-(2-(difluoromethyl)-7-((4-(1,5-dimethyl-1H-pyrazol-3-yl)-2-(methylsulfonyl)phenyl)amino)-3H-imidazo[4,5-b]pyridin-5-yl)-2,2-difluorocyclopropane-1-carboxamide] |
| 0.1 to 0.5 | Cc1cn(C)nc1-c1ccc(Nc2cc(Nc3cnc(C)c(C)n3)nc3[nH]c(C(F)F)nc23)c(S(C)(=O)=O)c1 [I-315, 2-(difluoromethyl)-N7-(4-(1,4-dimethyl-1H-pyrazol-3-yl)-2-(methylsulfonyl)phenyl)-N5-(5,6-dimethylpyrazin-2-yl)-3H-imidazo[4,5-b]pyridine-5,7-diamine] |
| > 10 | CS(=O)(=O)c1cc(C2CCC2)ccc1Nc1cc(NC(=O)[C@@H]2CC2(F)F)nc2[nH]c(C(F)F)nc12 [I-318, (S)—N-(7-((4-cyclobutyl-2-(methylsulfonyl)phenyl)amino)-2-(difluoromethyl)-3H-imidazo[4,5-b]pyridin-5-yl)-2,2-difluorocyclopropane-1-carboxamide] |
| > 10 | CS(=O)(=O)c1cc(C2CCC2)ccc1Nc1cc(NC(=O)[C@H]2CC2(F)F)nc2[nH]c(C(F)F)nc12 [I-319, (R)—N-(7-((4-cyclobutyl-2-(methylsulfonyl)phenyl)amino)-2-(difluoromethyl)-3H-imidazo[4,5-b]pyridin-5-yl)-2,2-difluorocyclopropane-1-carboxamide] |
| 1 to 10 | COc1c(Nc2cc(NC(=O)C3CC3)nc3[nH]c(C)nc23)cccc1-c1nc(C)cs1 [I-321, N-(7-((2-methoxy-3-(4-methylthiazol-2-yl)phenyl)amino)-2-methyl-3H-imidazo[4,5-b]pyridin-5-yl)cyclopropanecarboxamide] |
| 0.1 to 0.5 | Cc1c(-c2ccc(Nc3cc(NC(=O)C4CC4(F)F)nc4[nH]c(C(F)F)nc34)c(S(C)(=O)=O)c2)cnn1C (stereo not drawn) [I-331, N-(2-(difluoromethyl)-7-((4-(1,5-dimethyl-1H-pyrazol-4-yl)-2-(methylsulfonyl)phenyl)amino)-3H-imidazo[4,5-b]pyridin-5-yl)-2,2-difluorocyclopropane-1-carboxamide] |
| > 10 | CS(=O)(=O)c1cc(C2CCCO2)ccc1Nc1cc(NC(=O)C2CC2)nc2[nH]c(C(F)F)nc12 (stereo not drawn) [I-335, N-(2-(difluoromethyl)-7-((2-(methylsulfonyl)-4-(tetrahydrofuran-2-yl)phenyl)amino)-3H-imidazo[4,5-b]pyridin-5-yl)cyclopropanecarboxamide] |
| 1 to 10 | Cc1cc(-c2ccc(Nc3cc(NC(=O)C4CC4(F)F)nc4[nH]c(C(F)F)nc34)c(S(C)(=O)=O)c2)nn1C (stereo not drawn) [I-338, N-(2-(difluoromethyl)-7-((4-(1,5-dimethyl-1H-pyrazol-3-yl)-2-(methylsulfonyl)phenyl)amino)-3H-imidazo[4,5-b]pyridin-5-yl)-2,2-difluorocyclopropane-1-carboxamide] |
| 0.5 to 1 | Cc1nc2c(Nc3ccc([C@H]4CCCO4)cc3S(C)(=O)=O)cc(NC(=O)C3CC3(F)F)nc2[nH]1 (stereo partly drawn) [I-340, 2,2-difluoro-N-(2-methyl-7-((2-(methylsulfonyl)-4-((R)-tetrahydrofuran-2-yl)phenyl)amino)-3H-imidazo[4,5-b]pyridin-5-yl)cyclopropane-1-carboxamide] |
| 0.1 to 0.5 | Cc1nc2c(Nc3ccc(-c4c(C)nn(C)c4C)cc3S(C)(=O)=O)cc(Nc3cnc(C)c(C)n3)nc2[nH]1 [I-342] |

The next lines start with the compound.

| SMILES | Kd [nM] |
| --- | --- |
| Cc1cc(-c2ccc(Nc3cc(NC(=O)[C@H]4CC4(F)F)nc4[nH]c(C(F)F)nc34)c(S(C)(=O)=O)c2)nn1C [I-314, (R)—N-(2-(difluoromethyl)-7-((4-(1,5-dimethyl-1H-pyrazol-3-yl)-2-(methylsulfonyl)phenyl)amino)-3H-imidazo[4,5-b]pyridin-5-yl)-2,2-difluorocyclopropane-1-carboxamide] | 1 to 10 |
| CS(=O)(=O)c1cc([C@@H]2CCCO2)ccc1Nc1cc(NC(=O)[C@@H]2CC2(F)F)nc2[nH]c(C(F)F)nc12 [I-316, (S)—N-(2-(difluoromethyl)-7-((2-(methylsulfonyl)-4-((S)-tetrahydrofuran-2-yl)phenyl)amino)-3-imidazo[4,5-b]pyridin-5-yl)-2,2-difluorocyclopropane-1-carboxamide] | 0.5 to 1 |
| CS(=O)(=O)c1cc([C@@H]2CCCO2)ccc1Nc1cc(NC(=O)[C@H]2CC2(F)F)nc2[nH]c(C(F)F)nc12 [I-317, (R)—N-(2-(difluoromethyl)-7-((2-(methylsulfonyl)-4-((S)-tetrahydrofuran-2-yl)phenyl)amino)-3-imidazo[4,5-b]pyridin-5-yl)-2,2-difluorocyclopropane-1-carboxamide] | 0.1 to 0.5 |
| COc1c(Nc2cc(NC(=O)C3CC3)nc3[nH]c(C(F)F)nc23)cccc1-c1nc(C)cs1 [I-320, N-(2-(difluoromethyl)-7-((2-methoxy-3-(4-methylthiazol-2-yl)phenyl)amino)-3H-imidazo[4,5-b]pyridin-5-yl)cyclopropanecarboxamide] | 1 to 10 |
| Cn1cnc(-c2ccc(Nc3cc(NC(=O)[C@@H]4C[C@@H]4F)nc4[nH]c(C(F)F)nc34)c(S(C)(=O)=O)c2)c1 [I-322, (1S,2S)—N-(2-(difluoromethyl)-7-((4-(1-methyl-1H-imidazol-4-yl)-2-(methylsulfonyl)phenyl)amino)-3H-imidazo[4,5-b]pyridin-5-yl)-2-fluorocyclopropane-1-carboxamide] | 0.1 to 0.5 |
| Cc1nc2c(Nc3ccc([C@@H]4CCCCO4)cc3S(C)(=O)=O)cc(NC(=O)[C@H]3CC3(F)F)nc2[nH]1 [I-323, 2,2-difluoro-N-(2-methyl-7-((2-(methylsulfonyl)-4-((S)-tetrahydro-2H-pyran-2-yl)phenyl)amino)-3H-imidazo[4,5-b]pyridin-5-yl)cyclopropane-1-carboxamide] | 0.1 to 0.5 |
| CS(=O)(=O)c1cc([C@@H]2CCCCO2)ccc1Nc1cc(NC(=O)C2CC2(F)F)nc2[nH]c(C(F)F)nc12 (stereo partly drawn) [I-325, N-(2-(difluoromethyl)-7-((2-(methylsulfonyl)-4-((S)-tetrahydro-2H-pyran-2-yl)phenyl)amino)-3H-imidazo[4,5-b]pyridin-5-yl)-2,2-difluorocyclopropane-1-carboxamide] | 0.5 to 1 |
| CS(=O)(=O)c1cc([C@H]2CCCCO2)ccc1Nc1cc(NC(=O)[C@H]2CC2(F)F)nc2[nH]c(C(F)F)nc12 [I-326, N-(2-(difluoromethyl)-7-((2-(methylsulfonyl)-4-((R)-tetrahydro-2H-pyran-2-yl)phenyl)amino)-3H-imidazo[4,5-b]pyridin-5-yl)-2,2-difluorocyclopropane-1-carboxamide] | 1 to 10 |
| CS(=O)(=O)c1cc([C@@H]2CCCO2)ccc1Nc1cc(NC(=O)C2CC2(F)F)nc2[nH]c(C(F)F)nc12 (stereo partly drawn) [I-327, N-(2-(difluoromethyl)-7-((2-(methylsulfonyl)-4-((S)-tetrahydrofuran-2-yl)phenyl)amino)-3H-imidazo[4,5-b]pyridin-5-yl)-2,2-difluorocyclopropane-1-carboxamide] | 0.1 to 0.5 |
| CN=S(C)(=O)c1ccccc1Nc1cc(NC(=O)C2CC2)nc2[nH]c(C)nc12 (stereo not drawn) [I-328, N-(7-((2-(N,S-dimethylsulfonimidoyl)phenyl)amino)-2-methyl-3H-imidazo[4,5-b]pyridin-5-yl)cyclopropanecarboxamide] | 0.1 to 0.5 |
| CS(=O)(=O)c1cc([C@H]2CCCO2)ccc1Nc1cc(NC(=O)C2CC2(F)F)nc2[nH]c(C(F)F)nc12 (stereo partly drawn) [I-329, N-(2-(difluoromethyl)-7-((2-(methylsulfonyl)-4-((R)-tetrahydrofuran-2-yl)phenyl)amino)-3H-imidazo[4,5-b]pyridin-5-yl)-2,2-difluorocyclopropane-1-carboxamide] | 1 to 10 |
| Cc1nc2c(Nc3ccc(C4CCC(C)(C)O4)cc3S(C)(=O)=O)cc(NC(=O)C3CC3)nc2[nH]1 (stereo not drawn) [I-330, N-(7-((4-(5,5-dimethyltetrahydrofuran-2-yl)-2-(methylsulfonyl)phenyl)amino)-2-methyl-3H-imidazo[4,5-b]pyridin-5-yl)cyclopropanecarboxamide] | 0.1 to 0.5 |
| CC1(C)CCC(c2ccc(Nc3cc(NC(=O)C4CC4)nc4[nH]c(C(F)F)nc34)c(S(C)(=O)=O)c2)O1 (stereo not drawn) [I-332] | 0.1 to 0.5 |
| C[S+]([O-])c1ccccc1Nc1cc(NC(=O)C2CC2)nc2[nH]c(C(F)F)nc12 (stereo not drawn) [I-333, N-(2-(difluoromethyl)-7-((2-(methylsulfinyl)phenyl)amino)-3H-imidazo[4,5-b]pyridin-5-yl)cyclopropanecarboxamide] | 1 to 10 |
| Cc1nc2c(Nc3ccc(C4CCCO4)cc3S(C)(=O)=O)cc(NC(=O)C3CC3)nc2[nH]1 (stereo not drawn) [I-334, N-(2-methyl-7-((2-(methylsulfonyl)-4-(tetrahydrofuran-2-yl)phenyl)amino)-3H-imidazo[4,5-b]pyridin-5-yl)cyclopropanecarboxamide] | < 0.1 |
| Cc1nc2c(Nc3ccccc3[S+](C)[O-])cc(NC(=O)C3CC3)nc2[nH]1 (stereo not drawn) [I-336, N-(2-methyl-7-((2-(methylsulfinyl)phenyl)amino)-3H-imidazo[4,5-b]pyridin-5-yl)cyclopropanecarboxamide] | 1 to 10 |
| CS(=O)(=O)c1cc(C2CCOCC2)ccc1Nc1cc(NC(=O)C2CC2(F)F)nc2[nH]c(C(F)F)nc12 (stereo not drawn) [I-337, N-(2-(difluoromethyl)-7-((2-(methylsulfonyl)-4-(tetrahydro-2H-pyran-4-yl)phenyl)amino)-3H-imidazo[4,5-b]pyridin-5-yl)-2,2-difluorocyclopropane-1-carboxamide] | 1 to 10 |
| Cc1nc2c(Nc3ccc(C4=NC(C)(C)CO4)cc3S(C)(=O)=O)cc(NC(=O)[C@H]3C[C@H]3F)nc2[nH]1 [I-339, (1R,2R)—N-(7-((4-(4,4-dimethyl-4,5-dihydrooxazol-2-yl)-2-(methylsulfonyl)phenyl)amino)-2-methyl-3H-imidazo[4,5-b]pyridin-5-yl)-2-fluorocyclopropane-1-carboxamide] | 1 to 10 |
| Cc1cnc(-c2ccc(Nc3cc(Nc4cccc(C#N)n4)nc4[nH]c(C(F)F)nc34)c(S(C)(=O)=O)c2)n1C [I-341] | 0.1 to 0.5 |
| Cc1ncc(Nc2cc(Nc3ccc(-c4c(C)nn(C)c4C)cc3S(C)(=O)=O)c3nc(C(F)F)[nH]c3n2)nc1C [I-343] | 0.1 to 0.5 |
